{"source": "patent US11547681B2", "about": "“N-acylethanolamide derivatives and uses thereof” (ELIEM THERAPEUTICS, INC., priority 2016, dated 2023)", "experiment": "in vitro", "conditions": "for Measured concentration of PEA (analyte) / % Remaining of Initial: 1 μM; for half-life at 1 μM: s9, Half-life", "description": "Reaction mixture, minus cofactors, was prepared as described below. Test article was added into the reaction mixture at a final concentration of 1 μM. […] An aliquot of the reaction mixture (without cofactor cocktail) was equilibrated in a shaking water bath at 37° C. for 3 minutes. The reaction was initiated by the addition of cofactor cocktail (see below), and the mixture was then incubated in a shaking water bath at 37° C. Aliquots (100 μL) were withdrawn 0, 10, 20, 30 and 60 minutes. Test article samples were immediately combined with 300 μL of ice-cold acetonitrile containing 1% formic acid. Control samples were immediately combined with 400 μL of ice-cold 50/50 acetonitrile (ACN)/dH2O containing 0.1% formic acid and internal standard to terminate the reaction. Samples were then mixed and centrifuged to precipitate proteins. Calibration standards were prepared in matched matrix. Samples and standards were assayed by LC-MS/MS using electrospray ionization for both the dosed prodrug and the expected drug (PEA). Analytical conditions are outlined in Appendix 8-1. Test article concentration at each time point was compared to the test article concentration at time 0 to determine the percent remaining at each time point. Half-lives were calculated using GraphPad software, fitting to a single-phase exponential decay equation.\nReaction mixture, minus cofactors, was prepared as described below. Test article was added into the reaction mixture at a final concentration of 1 μM. […] An aliquot of the reaction mixture (without cofactor cocktail) was equilibrated in a shaking water bath at 37° C. for 5 minutes. Reaction was initiated by the addition of cofactor cocktail (see below), and mixture was then incubated in a shaking water bath at 37° C. Aliquots (100 μL) were withdrawn at 0, 10, 20, 30, and 60 minutes. Test article samples were immediately combined with 300 μL of ice-cold acetonitrile containing 1% formic acid. Control samples were immediately combined with 400 μL of ice-cold 50/50 acetonitrile (ACN)/dH2O containing 0.1% formic acid and internal standard to terminate the reaction. Samples were then mixed and centrifuged to precipitate proteins. Calibration standards were prepared in matched matrix. Samples and standards were assayed by LC-MS/MS using electrospray ionization for both dosed prodrug and expected drug (PEA). Analytical conditions are outlined in Appendix 10-1. Test article concentration at each time point was compared to test article concentration at time 0 to determine the percent remaining at each time point. Half-lives were calculated using GraphPad software, fitting to a single-phase exponential decay equation.\nThe reaction mixture, minus cofactors, was prepared as described below. Test article was added into the reaction mixture at a final concentration of 1 μM. […] An aliquot of the reaction mixture (without cofactor cocktail) was equilibrated in a shaking water bath at 37° C. for 3 minutes. Reaction was initiated by the addition of cofactor cocktail (see below), and the mixture was then incubated in a shaking water bath at 37° C. Aliquots (100 μL) were withdrawn at 0, 10, 20, 30, and 60 minutes. Test article samples were immediately combined with 300 μL of ice-cold acetonitrile containing 1% formic acid. Control samples were immediately combined with 400 μL of ice-cold 50/50 acetonitrile (ACN)/dH2O containing 0.1% formic acid and internal standard to terminate the reaction. Samples were then mixed and centrifuged to precipitate proteins. Calibration standards were prepared in matched matrix. Samples and standards were assayed by LC-MS/MS using electrospray ionization for both dosed prodrug and expected drug (PEA). Analytical conditions are outlined in Appendix 13-1. Test article concentration at each time point was compared to the test article concentration at time 0 to determine the percent remaining at each time point."}
{"smiles": "CCCCCCCCCCCCCCCC(=O)NCCOC(=O)CCC(=O)OC(CO)CO", "note": "[Compound I-8]", "values": [{"measurement": "Measured concentration of PEA (analyte)", "setting": "both, human, 0 min", "value": 0.19, "unit": "µM"}, {"measurement": "Measured concentration of PEA (analyte)", "setting": "both, human, 10 min", "value": 0.57, "unit": "µM"}, {"measurement": "Measured concentration of PEA (analyte)", "setting": "both, human, 20 min", "value": 0.47, "unit": "µM"}, {"measurement": "Measured concentration of PEA (analyte)", "setting": "both, human, 30 min", "value": 0.41, "unit": "µM"}, {"measurement": "Measured concentration of PEA (analyte)", "setting": "both, human, 60 min", "value": 0.28, "unit": "µM"}, {"measurement": "% Remaining of Initial", "setting": "both, human, s9, 0 h", "value": 100, "unit": "%"}, {"measurement": "% Remaining of Initial", "setting": "both, human, s9, 10 min", "value": 1.4, "unit": "%"}, {"measurement": "% Remaining of Initial", "setting": "both, human, s9, 20 min", "value": "<1.0", "unit": "%"}, {"measurement": "% Remaining of Initial", "setting": "both, human, s9, 0.5 h", "value": "<1.0", "unit": "%"}, {"measurement": "% Remaining of Initial", "setting": "both, human, s9, 1 h", "value": "<1.0", "unit": "%"}, {"measurement": "half-life at 1 μM", "setting": "both, human", "value": "< 10", "unit": "min"}, {"measurement": "Measured concentration of PEA (analyte)", "setting": "male, Beagle, dog, 0 min", "value": 0.13, "unit": "µM"}, {"measurement": "Measured concentration of PEA (analyte)", "setting": "male, Beagle, dog, 10 min", "value": 0.33, "unit": "µM"}, {"measurement": "Measured concentration of PEA (analyte)", "setting": "male, Beagle, dog, 20 min", "value": 0.34, "unit": "µM"}, {"measurement": "Measured concentration of PEA (analyte)", "setting": "male, Beagle, dog, 30 min", "value": 0.33, "unit": "µM"}, {"measurement": "Measured concentration of PEA (analyte)", "setting": "male, Beagle, dog, 60 min", "value": 0.20, "unit": "µM"}, {"measurement": "% Remaining of Initial", "setting": "male, Beagle, dog, s9, 0 h", "value": 100, "unit": "%"}, {"measurement": "% Remaining of Initial", "setting": "male, Beagle, dog, s9, 10 min", "value": 32, "unit": "%"}, {"measurement": "% Remaining of Initial", "setting": "male, Beagle, dog, s9, 20 min", "value": 11, "unit": "%"}, {"measurement": "% Remaining of Initial", "setting": "male, Beagle, dog, s9, 0.5 h", "value": 3.5, "unit": "%"}, {"measurement": "% Remaining of Initial", "setting": "male, Beagle, dog, s9, 1 h", "value": "<1.0", "unit": "%"}, {"measurement": "half-life at 1 μM", "setting": "male, Beagle, dog", "value": "< 10", "unit": "min"}, {"measurement": "Measured concentration of PEA (analyte)", "setting": "male, CD-1, mouse, 0 min", "value": 0.29, "unit": "µM"}, {"measurement": "Measured concentration of PEA (analyte)", "setting": "male, CD-1, mouse, 10 min", "value": 0.50, "unit": "µM"}, {"measurement": "Measured concentration of PEA (analyte)", "setting": "male, CD-1, mouse, 20 min", "value": 0.44, "unit": "µM"}, {"measurement": "Measured concentration of PEA (analyte)", "setting": "male, CD-1, mouse, 30 min", "value": 0.38, "unit": "µM"}, {"measurement": "Measured concentration of PEA (analyte)", "setting": "male, CD-1, mouse, 60 min", "value": 0.37, "unit": "µM"}, {"measurement": "% Remaining of Initial", "setting": "male, CD-1, mouse, s9, 0 h", "value": 100, "unit": "%"}, {"measurement": "% Remaining of Initial", "setting": "male, CD-1, mouse, s9, 10 min", "value": 4.6, "unit": "%"}, {"measurement": "% Remaining of Initial", "setting": "male, CD-1, mouse, s9, 20 min", "value": 1.0, "unit": "%"}, {"measurement": "% Remaining of Initial", "setting": "male, CD-1, mouse, s9, 0.5 h", "value": "<1.0", "unit": "%"}, {"measurement": "% Remaining of Initial", "setting": "male, CD-1, mouse, s9, 1 h", "value": "<1.0", "unit": "%"}, {"measurement": "half-life at 1 μM", "setting": "male, CD-1, mouse", "value": "< 10", "unit": "min"}, {"measurement": "half-life at 1 μM", "setting": "male, CD-1, mouse, calculated value in parentheses", "value": 2.3, "unit": "min"}, {"measurement": "Measured concentration of PEA (analyte)", "setting": "male, Sprague-Dawley, rat, 0 min", "value": 0.069, "unit": "µM"}, {"measurement": "Measured concentration of PEA (analyte)", "setting": "male, Sprague-Dawley, rat, 10 min", "value": 0.17, "unit": "µM"}, {"measurement": "Measured concentration of PEA (analyte)", "setting": "male, Sprague-Dawley, rat, 20 min", "value": 0.092, "unit": "µM"}, {"measurement": "Measured concentration of PEA (analyte)", "setting": "male, Sprague-Dawley, rat, 30 min", "value": 0.061, "unit": "µM"}, {"measurement": "Measured concentration of PEA (analyte)", "setting": "male, Sprague-Dawley, rat, 60 min", "value": 0.013, "unit": "µM"}, {"measurement": "% Remaining of Initial", "setting": "male, Sprague-Dawley, rat, s9, 0 h", "value": 100, "unit": "%"}, {"measurement": "% Remaining of Initial", "setting": "male, Sprague-Dawley, rat, s9, 10 min", "value": 17, "unit": "%"}, {"measurement": "% Remaining of Initial", "setting": "male, Sprague-Dawley, rat, s9, 20 min", "value": 2.8, "unit": "%"}, {"measurement": "% Remaining of Initial", "setting": "male, Sprague-Dawley, rat, s9, 0.5 h", "value": "<1.0", "unit": "%"}, {"measurement": "% Remaining of Initial", "setting": "male, Sprague-Dawley, rat, s9, 1 h", "value": "<1.0", "unit": "%"}, {"measurement": "half-life at 1 μM", "setting": "male, Sprague-Dawley, rat", "value": "< 10", "unit": "min"}, {"measurement": "half-life at 1 μM", "setting": "male, Sprague-Dawley, rat, calculated value in parentheses", "value": 3.9, "unit": "min"}]}
